Where two headings read alike, the source gives them in different places.
Legend:
[1] = pH 7.45
Source text: (§1) Br. J. Cancer (1993), 67, 226 231 ? Macmillan Press Ltd., 1993 Effect of anthracycline analogs on photolabelling of p-glycoprotein by I'25 liodomycin and [3Hlazidopine: Relation to lipophilicity and inhibition of daunorubicin transport in multidrug resistant cells E. Frichel*, E.J.F. Demant2, M. Sehested3 & N.I. Nissen' 'Department of Medicine and Hematology, L 4042, Rigshospitalet-University Hospital, 9, Blegdamsvej, DK-2100 Copenhagen; 2Department of Biochemistry C, The Panum Institute, University of Copenhagen, DK-2200 Copenhagen; 3Department of Pathology, Sundby Hospital, DK-2300 Copenhagen, Denmark. […] We photoaffinity labelled P-glycoprotein in daunorubicin (DNR) resistant Ehrlich ascites tumour cells (EHR2/DNR + ) with a ['25I]iodinated Bolton-Hunter derivative of daunorubicin ([1251]iodomycin) and with [3H]azidopine. […] Anthracyclines are among the most valuable cytostatic agents in clinical use. Their usefulness is, however, limited by the occurrence of tumour cells with the multidrug resistance (MDR) phenotype (Beck, 1987; Bliek & Borst, 1989; Endicott & Ling, 1989; Kaye & Merry, 1985; Moscow & Cowan, 1988). MDR cells have an enhanced amount of a 150- 170 kDa plasma membrane glycoprotein, P-glycoprotein (Pgp) (Kartner et al., 1983 and 1985; Cornwell et al., 1986; Bradley et al., 1988; Beck, 1991a; Roninson, 1991), that may function as a low-specificity transport protein to facilitate the outward transport of cytotoxic agents including the anthracyclines. Thus, increased drug efflux and therefore decreased accumulation is seen in MDR cells not only to the drug for which resistance is developed but also to a wide spectrum of chemically unrelated cytostatics (Bradley et al., 1988; Fojo et al., 1985). […] The aim of this study was to examine these analogs for their ability to com- pete for ligand binding to Pgp and thus service as inhibitors for the outward drug transport system in MDR cells. Anthracycline inter-actions with Pgp were assessed using the specific photolabelling of the protein with [251I]iodomycin, a ['251]iodinated Bolton-Hunter derivative of DNR (Busche et al., 1989a) and with [3H]azidopine ([3H]AZP) which photolabels Pgp in plasma membrane vesicles from EHR2/ DNR + cells (Sehested et al., 1990) as well as in whole cells (Safa et al., 1987; Friche et al., 1990c). […] Material and methods Chemicals Duanorubicin (DNR); AdriamycinR (Doxorubicin/HCl, DOX); 4'-deoxy-4'-iododoxorubicin (DIDOX); and 4- demethoxy-DNR were kindly supplied from Farmitalia, Carlo Erba (Milan, Italy). N,N-dibenzyl-DNR was a gift from Dr Nicholas Bachur, (Baltimore, MD) and N- benzyladriamycin-14-valerate (AD 198) a gift from Professor M. Israel (Memphis, TN). Mitoxantrone was purchased from Lederle (New Jersey, USA), Aclacinomycin A from Lund- beck & Co A/S (Copenhagen, Denmark), OncovinR (Vincristine/HCl, VCR) from Eli Lilly Deutschland GMBH (Giessen, Germany), Cremophor EL from BASF Aktiengesellschaft (Ludwigshafen, Germany), and Tween 80 from the Sigma Chemical Co. (St. Louis, MO). ['251]-Bolton- Hunter reagent (2000 Ci mmol 1), [3H]AZP (42 Ci mmol- ') and non-radioactive AZP were purchased from Amersham International (Amersham, UK). All other chemicals were of analytical grade. Organic solvents were distilled prior to use. Triethylamine was distilled over ninhydrin and anhydrous methanol was stored over molecular sieve (3 A). Tumour cells Cells were either the wild-type Ehrlich ascites tumor line (EHR2) or the corresponding DNR-resistant line (EHR2/ DNR + ) (Dan0, 1971) displaying both the MDR phenotype (Sehested et al., 1990) and as recently shown, decreased Correspondence: E. Friche. Received 22 April 1992; and in revised form 21 September 1992.

P-glycoprotein [2] = test: [125I]iodomycin photolabelling of Pgp in EHR2/DNR+ cells; type: binding, mice; conditions: iodomycin 10 nM
Source text: as §1

P-glycoprotein [3] = test: [3H]azidopine photolabelling of Pgp in EHR2/DNR+ cells; type: binding, mice; conditions: [3H]AZP 0.4 µM
Source text: as §1

EHR2/DNR+ [4] = conditions: in vitro clonogenic assay; ref Friche et al., 1990b; cited from earlier work
EHR2/DNR+ [5] = conditions: in vivo; ref Friche et al., 1987; cited from earlier work

For `COc1cccc2c1C(=O)c1c(O)c3c(c(O)c1C2=O)C[C@@](O)(C(C)=O)C[C@@H]3O[C@H]1C[C@H](N)[C@H](O)[C@H](C)O1` [Daunorubicin], the “Lipid solubility (O/W), octanol/water partition coefficient” value [1] was 7.85, the “Per cent inhibition of [125I]iodomycin photolabelling of Pgp” value (P-glycoprotein [2]; 10 µM drug (1000-fold molar excess), 30 min 37°C) was 52.5% and the “Per cent inhibition of [125I]iodomycin photolabelling of Pgp” value (P-glycoprotein [2]; 20 µM drug) was 82.7%. The “Per cent inhibition of [125I]iodomycin photolabelling of Pgp” value (P-glycoprotein [2]; 20 µM drug, listed as DNR) was 83%, the “Per cent inhibition of [125I]iodomycin photolabelling of Pgp” value (P-glycoprotein [2]; 40 µM drug) was 90.6% and the “Per cent inhibition of [125I]iodomycin photolabelling of Pgp” value (P-glycoprotein [2]; 40 µM drug, listed as DNR) was 90%. The “Per cent inhibition of [3H]AZP photolabelling of Pgp” value (P-glycoprotein [3]; 10 µM drug) was 8.0%, the “Per cent inhibition of [3H]AZP photolabelling of Pgp” value (P-glycoprotein [3]; 20 µM drug) was 33.2% and the “Per cent inhibition of [3H]AZP photolabelling of Pgp” value (P-glycoprotein [3]; 40 µM drug (100-fold molar excess)) was 50.0%. The “Resistance of EHR2/DNR+ subline” value (EHR2/DNR+ [4]) was “about 80 fold” and the “Resistance of EHR2/DNR+ subline” value (EHR2/DNR+ [5]) was “at least 16 fold”.

— article PMC1968196, “Effect of anthracycline analogs on photolabelling of p-glycoprotein by [125I]iodomycin and [3H]azidopine: relation to lipophilicity and inhibition of daunorubicin transport in multidrug resistant cells” (British Journal of Cancer, 1993)
